Measurements from patent publication EP0098138A2, “Microbial cells and the use thereof to produce oxidation products” (EXXON RESEARCH AND ENGINEERING COMPANY, priority 1982, dated 1984).
Where two headings read alike, the source gives them in different places.

Assays:
[1] = tested on: secondary alcohol dehydrogenase; assay: Oxidation of secondary alcohols by soluble extracts (NAD+ reduction at 340 nm); format: biochemical, Arthrobacter sp. (CRL 60 P1) NRRL B-11,315; details: substrate of soluble extracts, pH 8.0, 100% = 22 nmoles of NAD+ reduced per minute per mg of protein
Procedure: (§1) Cell suspensions of the microorganism strains identified in Table XII grown on the indicated growth substrate were disrupted with a wave energy ultrasonic oscillator Model W201 (Wave Energy System, Inc., Newton, Pa) and centrifuged at 30,000 x g for 30 min. The supernatant solution (cell extracts) was used for the oxidation of secondary alcohols. Secondary alcohol dehydrogenase activity was measured spectrophotometrically at 340 nm with oxidized nicotinamide adenine dinucleotide (NAD^+) as an electron acceptor.
(§2) The initial reaction mixture, in a total volume of 3.0 ml, consisted of 50mM phosphate buffer of pH 8.0, 5 µ moles of NAD^+, and cell extract.

alkane monooxygenase = assay: Epoxidation of alkenes and styrene by soluble extracts; format: biochemical, Brevibacterium sp. (CRL 56 P6Y) NRRL B-11,319
Procedure: The microorganism Brevibacterium sp. […] The fermentor was inoculated with 2 liters of a culture grown in flasks.
The cells thus grown were washed twice with 25 mM potassium phosphate buffer pH 7.0 and suspended in the same buffer solution containing 5mM MgCl2 and deoxyribonuclease (0.05 mg/ml). […] Disintegrated cell suspensions were centrifuged at 15,000 x g for 15 min. to remove unbroken cells. The supernatant solution was then centrifuged at 40,000 x g for 60 minutes and the supernatant solution therefrom was again centrifuged at 80,000 x g for 60 minutes, yielding the soluble fraction.
Several 3-ml vials at 4°C were charged with 0.2 ml of a reaction mixture consisting of 10 µmoles potassium phosphate buffer pH 7.0, 4 µ cmoles NADH2, and the soluble enzyme fraction obtained above. The gaseous phase of the vials was evacuated by vacuum and replaced with a gas mixture of gaseous oxidation substrate and oxygen (1:1 v/v); in the case of a liquid oxidation substrate, 2 µl of substrate was added. The vials were incubated at 35 °C on a reciprocating water bath shaker at 50 oscillations per minute.
The rate of epoxidation of alkenes and styrene was measured by injecting 1-2 µ1 samples of the reaction mixture into a gas chromatograph immediately after addition of substrate (zero time) and after 5 and 10 min. of incubation. Specific activities were expressed as […] of product formed per 10 min. per mg of protein. With each substrate, control experiments were conducted in the absence of NADH2, in the absence of oxygen, and using boiled extracts.

[2] = tested on: Propane-Oxidizing Activity of Arthrobacter sp. (CRL 60 P1) NRRL B-11,315; assay: Effect of inhibitors on propane-oxidizing activity (acetone production) of propane-grown cell suspensions; format: cell-based; details: for inhibition at 1000 µM: Arthrobacter, NRRLB11, 0.25 h
Procedure: (§3) The pH of the nutrient medium was adjusted to 7.0 by the addition of acid or base and 50 ml samples of the nutrient medium were charged into a plurality of 300 ml shake flasks. The shake flasks were inoculated with an innoculating loop of cells from an agar plate containing homogeneous colonies of the microorganisms on the plate (the purity of the isolates was confirmed by microscopic examination). […] In the case of growth on liquid substrates (at 0.3%, v/v), the gaseous phase of the flasks was air. The inoculated flasks were sealed air tight and were incubated on a rotary shaker at 250 rpm and at 30°C for two days until turbidity in the medium had developed.
(§4) The cells were harvested by centrifugation at 12,000 x g. at 4 °C for 15 minutes. The cell pellet was washed twice with a 50 mM phosphate buffer at a pH of 7.0. The washed cells were then suspended in a 50mM phosphate buffer at pH 7.0.
(§5) The gaseous phase of the vials was removed with vacuum and then was replaced with a gas mixture of the oxidative substrate (e.g. ethane) and oxygen at a 1:1 v/v ratio. If a liquid substrate was employed, 5-10 µl of substrate was placed in the vials. […] Samples (3 µl) were withdrawn periodically with a microsyringe and the products were analyzed by gas chromatography (ionization flame detector column) at a column temperature of 100°C to 180 °C and at a carrier gas flow rate of 30 or 35 ml/ min of helium. The various products were identified by retention time comparisons and co-chromatography with authentic standards. […] Protein in the cell suspensions was determined by the method described by […].
(§6) All inhibitors were added at 1mM concentration and the cell suspensions were incubated for 15 min. at 4 °C.

[3] = tested on: Propylene-Oxidizing Activity of Arthrobacter sp. (CRL 60 P1) NRRL B-11,315; assay: Effect of inhibitors on propylene-oxidizing activity (propylene oxide formation) of propane-grown cell suspensions; format: cell-based; details: for inhibition at 1000 µM: Arthrobacter, NRRLB11, 0.25 h
Procedure: as §3, §4, §5, §6

[4] = tested on: secondary alcohol dehydrogenase; assay: Effect of inhibitors on oxidation of 2-butanol by cell extracts (NAD+ reduction at 340 nm); format: biochemical, Arthrobacter sp. (CRL 60 P1) NRRL B-11,315
Procedure: as §1, §2
All inhibitors were tested at lmM concentration and incubated with the soluble extracts in the reaction mixture for 15 min at 0°C. Otherwise the procedure described above was followed.

[5] = tested on: Cell-Free Particulate Fraction of Arthrobacter sp. (CRL 60 P1) NRRL B-11,315; assay: Oxidation of alkenes and alkanes by cell-free particulate P(40) fraction; format: biochemical
Procedure: (§9) Cells were harvested during exponential growth by centrifugation at 12,000 x g for 15 min. at 4°C. Cells were washed twice with a 25 mM potassium phosphate buffer of pH 7.0 containing 5mM MgCl2 and were then suspended in the same buffer. The resulting cell suspensions at 4°C were disintegrated by a single passage through a French pressure cell (45 mPa) and centrifuged at 5,000 x g for 15 min to remove unbroken bacteria. […] The particulate fraction [P(40)] was suspended in the same buffer as described above and homogenized at 4°C.
(§10) A 1.0 ml sample containing the particulate or soluble fraction, 10 µ moles NADH and 150 mM potassium phosphate buffer at pH 7.0 containing 3 µ moles MgCl2 was put into separate 10 ml vials at 4°C which were sealed with a rubber cap. The gaseous phase of the vials was removed by vacuum and replaced with a gas mixture of the indicated alkane or alkene as substrate and oxygen at a 1:1 v/v ratio. The vials were then incubated at 30°C on a rotary shaker at 200 rpm for 10 minutes.
Reactions were linear during the first 15 minutes of incubation as measured by detection of product by gas chromatography.

[6] = tested on: Cell-Free Particulate P(40) Fraction of Arthrobacter sp. (CRL 60 P1) NRRL B-11,315
Procedure: as §9, §10

[7] = tested on: Arthrobacter sp. (CRL 60 Pl) NRRL B-11,315; assay: Effect of propane on oxidation of propylene to propylene oxide by cell suspensions; format: cell-based; details: propane added to cell suspensions epoxidising propylene
Description: (§7) The following summarizes tests conducted on the optimal conditions for the production of propylene oxide from propylene using cell suspensions of propane-grown Arthrobacter sp. (CRL 60 Pl) NRRL B-11,315 as the representative microorganism strain. It will be understood that these are optimal conditions found for one particular strain and one particular substrate, and the invention is not meant to be bound by them. Conversions of propylene can still be obtained using Arthrobacter sp. (CRL 60 Pl) NRRL B-11,315 by deviating from the optimum indicated below, but with lower yields and conversions.
The effect of propane on the oxidation of propylene to propylene oxide was studied to determine if a single enzyme system was responsible for the oxidation of both propane and propylene.

[8] = tested on: Arthrobacter sp. (CRL 60 Pl) NRRL B-11,335
Procedure: as §5
Arthrobacter sp. […] Ethanol was converted to acetaldehyde (acetyl Co ~A in vivo) by primary alcohol dehydrogenase, yielding 1 mole of NADH, with subsequent oxidation of the intermediate acetyl Co ~A to carbon dioxide, yielding 3 additional moles of NADH.

[9] = format: physicochemical
Procedure: (§8) To determine if the slower reaction rate after 40-60 min of incubation was due to enzymatic or non-enzymatic oxidation of propylene oxide or due to product inhibition, 5 µ moles of propylene oxide was added to viable and to heat-killed cell suspensions in the presence and absence of propylene, and incubated at 30°C.
[…]. The rate of epoxidation of propylene was found not to vary markedly in the pH range from 5 to 9, with the optimum pH about 7. A 5 A mole sample of propylene oxide was added to heat-killed cell suspensions at pH 5, 7 and 9 to test for non-enzymatic degradation of propylene oxide at these pH values.

[10] = tested on: Arthrobacter sp. (CRL 60 Pl) NRRL B-11,315; assay: Further oxidation of added propylene oxide by viable cell suspensions; format: cell-based; details: 5 µ moles added to viable cell suspension, 30°C
Description: as §7, §8

[11] = tested on: Cell-Free Particulate P(40) Fraction of Arthrobacter sp. (CRL 60 P1) NRRL B-11,315; assay: Effect of inhibitors on oxidation of propane and butane by cell-free particulate P(40) fraction
Procedure: as §9, §10

[12] = substrate epoxidised by soluble fraction, NADH2 and oxygen, pH 7.0, 35°C
[13] = inhibitor 1mM, cell suspensions incubated 15 min at 4°C, acetone production by gas chromatography, uninhibited rate 1.5 μ moles/hr/mg of protein
[14] = inhibitor 1mM, cell suspensions incubated 15 min at 4°C, propylene oxide formation by gas chromatography, uninhibited rate 0.6 μmoles/15 min/mg of protein
[15] = inhibitor 1mM, incubated with soluble extracts 15 min at 0°C, substrate 2-butanol, uninhibited activity 25 nmoles of NAD+ reduced per min per mg of protein
[16] = alkene substrate, epoxide product, P(40) fraction, NADH and oxygen, pH 7.0, 30°C

## 2-Butanol
[1]
  Rate of Oxidation (%): 100%

## C=CC=C [1,3-Butadiene]
Alkane monooxygenase; [12]
  Rate of Product Formation: 0.044 μ mole/10 min./mg protein

## c1cnc2c(c1)ccc1cccnc12 [1,10-Phenanthroline]
[2]; [13]
  inhibition at 1000 µM: 80%
[3]; [14]
  inhibition at 1000 µM: 90%
[4]; [15]
  Inhibition (%): 80%

## C=CCC [1-Butene]
Alkane monooxygenase; pH 7
  Rate of Product Formation: 0.030 μ mole/10 min./mg protein
[5]; pH 7
  Rate of Product Formation: 0.216 μ moles/hr/mg protein

## C=CCCCCC [1-Heptene]
Alkane monooxygenase; pH 7
  Rate of Product Formation: 0.008 μ mole/10 min./mg protein

## C=CCCC [1-Pentene]
Alkane monooxygenase; [12]
  Rate of Product Formation: 0.025 μ mole/10 min./mg protein
[5]; [16]
  Rate of Product Formation: 0.195 μ moles/hr/mg protein

## CCCCCC(C)O (stereo not shown) [2-Heptanol]
[1]
  Rate of Oxidation (%): 4%

## CCCCC(C)O (stereo not shown) [2-Hexanol]
[1]
  Rate of Oxidation (%): 10%

## CCCC(C)O (stereo not shown) [2-Pentanol]
[1]
  Rate of Oxidation (%): 12%

## C=C [Ethylene]
Alkane monooxygenase; pH 7
  Rate of Product Formation: 0.040 μ mole/10 min./mg protein
[5]; pH 7
  Rate of Product Formation: 0.153 μ moles/hr/mg protein

## NO [Hydroxylamine]
[2]; [13]
  Inhibition (%) Propane-Oxidizing Activity: 70%
[3]; [14]
  Inhibition (%) Propylene-Oxidizing Activity: 83%

## c1c[nH]cn1 [Imidazole]
[2]; [13]
  inhibition at 1000 µM: 80%
[6]
  inhibition: 80%

## C=C(C)C [Isobutene]
Alkane monooxygenase; [12]
  Rate of Product Formation: 0.046 μ mole/10 min./mg protein

## NNC(=O)c1ccncc1 [Isoniazide]
[2]; [13]
  inhibition at 1000 µM: 30%
[3]; [14]
  inhibition at 1000 µM: 35%

## CC(C)O [Isopropanol]
[1]
  Rate of Oxidation (%): 65%

## CCN1C(=O)C=CC1=O [N-Ethylmaleimide]
[2]; [13]
  inhibition at 1000 µM: 70%
[3]; [14]
  inhibition at 1000 µM: 81%
[4]; [15]
  Inhibition (%): 30%

## CCC [Propane]
[7]
  effect of propane on the oxidation of propylene to propylene oxide: reducing the amount of propylene oxide formed
[5]; alkane substrate, primary alcohol product (n-propanol, n-butanol), P(40) fraction, NADH and oxygen, pH 7.0, 30°C
  Rate of Product Formation: 0.600 μ moles/hr/mg protein
[5]; alkane substrate, secondary alcohol product (2-propanol, 2-butanol), P(40) fraction, NADH and oxygen, pH 7.0, 30°C
  Rate of Product Formation: 0.300 μ moles/hr/mg protein

## C=CC [Propylene]
Alkane monooxygenase; [12]
  Rate of Product Formation: 0.052 μ mole/10 min./mg protein
[5]; [16]
  Rate of Product Formation: 0.360 μ moles/hr/mg protein

## C=Cc1ccccc1 [Styrene]
Alkane monooxygenase; [12]
  Rate of Product Formation: 0.005 μ mole/10 min./mg protein

## CC(=N)S [Thioacetamide]
[2]; [13]
  inhibition at 1000 µM: 60%
[3]; [14]
  inhibition at 1000 µM: 68%

## NNC(N)=S [Thiosemicarbazide]
[2]; [13]
  inhibition at 1000 µM: 10%
[3]; [14]
  inhibition at 1000 µM: 12%

## NC(N)=S [Thiourea]
[2]; [13]
  inhibition at 1000 µM: 10%
[3]; [14]
  inhibition at 1000 µM: 12%

## C/C=C\C [cis-But-2-ene]
Alkane monooxygenase; pH 7
  Rate of Product Formation: 0.018 μ mole/10 min./mg protein

## CCO [ethanol]
[8]; 5 μmole ethanol, 1 hr., control 2.5
  Epoxidation Rate (rate of propylene oxide formation): 2.9 μ mole/0.5 ml.
[8]; 5 μmole ethanol, 2 hr., control 3.8
  Epoxidation Rate (rate of propylene oxide formation): 5.6 μ mole/0.5 ml.
[8]; 5 μmole ethanol, 3 hr., control 3.9
  Epoxidation Rate (rate of propylene oxide formation): 6.5 μ mole/0.5 ml.
[8]; 25 μmole ethanol, 1 hr., control 2.5
  Epoxidation Rate (rate of propylene oxide formation): 2.4 μ mole/0.5 ml.
[8]; 25 μmole ethanol, 2 hr., control 3.8
  Epoxidation Rate (rate of propylene oxide formation): 5.2 μ mole/0.5 ml.
[8]; 25 μmole ethanol, 3 hr., control 3.9
  Epoxidation Rate (rate of propylene oxide formation): 6.5 μ mole/0.5 ml.

## O=C(O)c1cc[c]([Hg+])cc1.[OH-] [p-Hydroxymercuribenzoate]
[2]; [13]
  Inhibition (%) Propane-Oxidizing Activity: 35%
[3]; [14]
  Inhibition (%) Propylene-Oxidizing Activity: 35%
[4]
  Inhibition (%): 95%

## CC1CO1 (stereo not shown) [propylene oxide]
[9]; 5 µ moles added to heat-killed cell suspensions, 30°C
  amount of propylene oxide: remained constant
[9]; heat-killed cell suspensions at pH 5, 7 and 9, one hour of incubation
  non-enzymatic degradation of propylene oxide: did not decrease
[10]
  disappearance in propylene oxide: Some disappearance

## C/C=C/C [trans-But-2-ene]
Alkane monooxygenase; pH 7
  Rate of Product Formation: 0.022 μ mole/10 min./mg protein

## α,α-Bipyridyl
[11]
  Inhibition (%): 32%
[2]
  Inhibition (%) Propane-Oxidizing Activity: 30%
[3]
  Inhibition (%) Propylene-Oxidizing Activity: 32%
